Experimental data published in ChEMBL document CHEMBL5226295, “Targeting Bromodomain and Extraterminal Proteins for Drug Discovery: From Current Progress to Technological Development” (J Med Chem, 2021).
One block for each compound: values may come before it.

How the values were obtained:
Homo sapiens = organism: Homo sapiens; assay: Selectivity for BRD4 BD1 (unknown origin) over BRD4 BD2 (unknown origin) assessed as fold change
[1] = biological target: T1, Bromodomain-containing protein 4 (Homo sapiens, UniProt O60885); assay: Binding affinity to BRD4 BD1 (unknown origin) assessed as dissociation constant by ITC analysis
[2] = biological target: von Hippel-Lindau disease tumor suppressor/Bromodomain-containing protein 4 (Homo sapiens, UniProt O60885+P40337); assay: Protac activity at BRD4/VHL E3 ligase in human SU-DHL-4 cells assessed as induction of BRD4 degradation incubated for 14 hrs by immunoblot analysis; type: cell-based
[3] = biological target: Protein cereblon/Bromodomain-containing protein 4 (Homo sapiens, UniProt O60885+Q96SW2); assay: Protac activity at CRBN/BRD4 in human SUM149PT assessed as induction of BRD4 degradation incubated for 18 hrs by immunoblot analysis; type: cell-based
[4] = biological target: T1, Bromodomain-containing protein 4; assay: Inhibition of poly His-tagged BRD4 BD1 (unknown origin) ([…] residues) by TR-FRET assay
[5] = biological target: T1, Bromodomain-containing protein 4; assay: Inhibition of poly His-tagged BRD4 BD2 (unknown origin) (348 to 455 residues) by TR-FRET assay
[6] = biological target: T1, Bromodomain-containing protein 4; assay: Binding affinity to BRD4 BD2 (unknown origin) assessed as dissociation constant by ITC analysis
[7] = biological target: T1, Bromodomain-containing protein 4; assay: Inhibition of GST-tagged BRD4 BD1 (unknown origin) using H4(1 to 21 residues) biotinylated peptide as substrate at 10 uM incubated for 3 hrs by HTFR assay
Histone deacetylase 3 = Histone deacetylase 3 (Homo sapiens, UniProt O15379); assay: Inhibition of recombinant human HDAC3 using Boc-Lys(Ac)-AMC as substrate preincubated for 15 mins followed by substrate addition and measured after 60 mins by fluorescence based assay
[8] = biological target: T1, Bromodomain-containing protein 4; assay: Inhibition of poly His-tagged BRD4 BD1 (unknown origin) ([…] residues) by BROMOscan assay
[9] = biological target: T1, Bromodomain-containing protein 4; assay: Inhibition of poly His-tagged BRD4 BD2 (unknown origin) (348 to 455 residues) by BROMOscan assay
[10] = biological target: T1, Bromodomain-containing protein 4; assay: Inhibition of recombinant human BRD4 BD1 measured after 2 hrs by TR-FRET assay
[11] = biological target: T1, Bromodomain-containing protein 4; assay: Inhibition of recombinant human BRD4 BD2 measured after 2 hrs by TR-FRET assay
[12] = biological target: Poly [ADP-ribose] polymerase 1 (Homo sapiens) (UniProt P09874); assay: Inhibition of PARP1 (unknown origin) using NAD+ as substrate incubated for 60 mins by ELISA
[13] = Antiproliferative activity against human Triple-negative breast cancer cells assessed as cell growth inhibition incubated for 4 days by CellTiter Glo assay; type: functional, cell-based; settings: 96 h

Chain of Protein cereblon/Bromodomain-containing protein 4 (Q96SW2 whole entry, looked up, other chains not shown): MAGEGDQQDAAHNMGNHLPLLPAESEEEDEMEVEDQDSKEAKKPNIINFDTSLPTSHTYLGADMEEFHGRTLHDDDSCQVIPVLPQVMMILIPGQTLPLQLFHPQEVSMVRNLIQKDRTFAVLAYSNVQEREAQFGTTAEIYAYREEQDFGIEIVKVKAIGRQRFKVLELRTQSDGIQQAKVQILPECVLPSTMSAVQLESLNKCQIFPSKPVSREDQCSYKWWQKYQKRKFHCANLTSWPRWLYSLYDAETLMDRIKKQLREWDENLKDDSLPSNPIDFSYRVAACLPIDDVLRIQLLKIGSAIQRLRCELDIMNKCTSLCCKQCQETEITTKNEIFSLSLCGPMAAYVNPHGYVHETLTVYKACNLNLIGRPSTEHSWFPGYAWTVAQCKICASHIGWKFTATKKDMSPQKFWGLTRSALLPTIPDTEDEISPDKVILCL
Chain of von Hippel-Lindau disease tumor suppressor/Bromodomain-containing protein 4 (P40337 whole entry, looked up, other chains not shown): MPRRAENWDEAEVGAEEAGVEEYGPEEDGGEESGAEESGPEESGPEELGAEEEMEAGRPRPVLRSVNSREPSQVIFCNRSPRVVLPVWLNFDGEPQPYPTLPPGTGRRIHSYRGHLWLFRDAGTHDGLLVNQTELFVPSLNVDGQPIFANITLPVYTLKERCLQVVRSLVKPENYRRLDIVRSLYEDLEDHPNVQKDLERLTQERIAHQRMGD
Chain of Histone deacetylase 3 (O15379 whole entry): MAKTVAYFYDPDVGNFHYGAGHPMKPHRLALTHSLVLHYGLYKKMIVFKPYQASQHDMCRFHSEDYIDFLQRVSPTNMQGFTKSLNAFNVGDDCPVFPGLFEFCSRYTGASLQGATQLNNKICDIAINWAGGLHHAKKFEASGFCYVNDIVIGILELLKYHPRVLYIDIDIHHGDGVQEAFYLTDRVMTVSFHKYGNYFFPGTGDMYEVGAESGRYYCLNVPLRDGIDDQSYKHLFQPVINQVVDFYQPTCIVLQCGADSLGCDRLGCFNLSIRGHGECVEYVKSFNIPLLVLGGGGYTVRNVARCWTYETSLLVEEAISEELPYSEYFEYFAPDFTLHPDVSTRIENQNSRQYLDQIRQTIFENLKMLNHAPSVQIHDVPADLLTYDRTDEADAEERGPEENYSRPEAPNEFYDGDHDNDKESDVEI
Chain of Poly [ADP-ribose] polymerase 1 (Homo sapiens) (P09874 whole entry): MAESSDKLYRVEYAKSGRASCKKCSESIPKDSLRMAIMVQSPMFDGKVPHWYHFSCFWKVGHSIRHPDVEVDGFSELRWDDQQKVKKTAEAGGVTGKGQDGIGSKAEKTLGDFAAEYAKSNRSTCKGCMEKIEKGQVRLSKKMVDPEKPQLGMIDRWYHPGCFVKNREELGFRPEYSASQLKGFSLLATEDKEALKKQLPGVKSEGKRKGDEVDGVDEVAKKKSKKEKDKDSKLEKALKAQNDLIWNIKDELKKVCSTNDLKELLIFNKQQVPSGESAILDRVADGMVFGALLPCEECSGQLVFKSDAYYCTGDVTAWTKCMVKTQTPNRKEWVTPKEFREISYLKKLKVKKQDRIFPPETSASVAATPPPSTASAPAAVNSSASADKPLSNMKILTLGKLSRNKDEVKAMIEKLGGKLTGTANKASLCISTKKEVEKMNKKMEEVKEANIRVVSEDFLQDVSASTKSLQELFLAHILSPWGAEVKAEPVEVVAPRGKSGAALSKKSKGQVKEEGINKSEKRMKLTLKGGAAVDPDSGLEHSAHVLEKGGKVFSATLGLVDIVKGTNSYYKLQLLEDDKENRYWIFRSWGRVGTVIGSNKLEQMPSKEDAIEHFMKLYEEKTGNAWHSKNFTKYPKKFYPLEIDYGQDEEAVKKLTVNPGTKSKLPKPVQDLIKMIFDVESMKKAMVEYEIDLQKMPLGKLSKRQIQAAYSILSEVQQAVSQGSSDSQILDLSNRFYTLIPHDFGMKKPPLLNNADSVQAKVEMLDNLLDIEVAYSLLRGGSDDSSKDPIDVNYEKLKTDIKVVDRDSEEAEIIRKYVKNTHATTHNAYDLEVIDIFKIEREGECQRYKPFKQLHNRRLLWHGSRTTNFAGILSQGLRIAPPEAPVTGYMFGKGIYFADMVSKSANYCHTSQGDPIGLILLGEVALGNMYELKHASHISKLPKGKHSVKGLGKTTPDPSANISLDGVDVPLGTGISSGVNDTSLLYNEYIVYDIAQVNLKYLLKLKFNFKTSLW

Selectivity ratio (Homo sapiens): > 300
Structure (SMILES): CC(=O)Nc1c(F)cc(C(=O)N[C@H]2CC[C@H](O)CC2)cc1O[C@@H](C)c1ccccc1

Kd [1]: 44 nM
Structure (SMILES): CC(=O)N[C@H](CSCCCCCCNC(=O)C[C@H]1N=C(c2ccc(Cl)cc2)c2c(sc(C)c2C)-n2c(C)nnc21)C(=O)N1C[C@@H](O)C[C@@H]1C(=O)NCc1ccc(-c2scnc2C)cc1

DC50 [2]: 10800 nM
Structure (SMILES): Cc1sc2c(c1C)C(c1ccc(Cl)cc1)=N[C@@H](CC(=O)NCCOCCOCCNC(=O)c1cccc(S(=O)(=O)Nc3ccc(C)c4c(C#N)c[nH]c34)c1)c1nnc(C)n1-2

EC50 [3]: 430 nM
Structure (SMILES): Cc1sc2c(c1C)C(c1ccc(Cl)cc1)=N[C@@H](CC(=O)NCCCCNC(=O)COc1cccc3c1C(=O)N(C1CCC(=O)NC1=O)C3O)c1nnc(C)n1-2 (some centres not stated)

Kd [4]: 301 nM | Kd [5]: 2 nM
Structure (SMILES): CC(=O)N1c2ccc(-c3cc[nH]n3)cc2[C@H](Nc2ccc(C#N)cc2)C[C@@H]1C

Selectivity ratio (Homo sapiens): > 130
Structure (SMILES): COCc1nc2cnc3cc(-c4c(C)noc4C)c(OC[C@H]4CCNC4)cc3c2n1[C@H](C)c1ccccc1

Kd [1]: 382 nM | Kd [6]: 120 nM
Structure (SMILES): CC1=C(C)C2C(c3ccc(Cl)cc3)N[C@@](C)(CC(=O)NCCOCCOCCOCC(=O)N[C@H](C(=O)N3C[C@H](O)C[C@H]3C(=O)NCc3ccc(-c4scnc4C)cc3)C(C)(C)C)c3nnc(C)n3C2S1 (some centres not stated)

inhibition [7]: 88% | IC50 (Histone deacetylase 3): 5 nM
Structure (SMILES): Cc1noc(C)c1-c1ccc2c(c1)C(Cc1ccc(F)cc1)CN2CCCCCCC(=O)NO (configuration not stated)

IC50 [8]: 27 nM | IC50 [9]: 0.42 nM
Structure (SMILES): COC(=O)c1ccc(N[C@@H]2C[C@H](C)N(C(C)=O)c3ccc(-c4cccc(NC(C)=O)c4)cc32)cc1

IC50 [10]: 440 nM | IC50 [11]: 379 nM | inhibition [12]: < 60%
Structure (SMILES): COc1cc(OC)c2c(=O)[nH]c(-c3ccc(OCCOc4ccccc4C(N)=O)cc3)nc2c1

Structure (SMILES): CCn1nc(C2CC2)cc1Nc1nc(C(=O)NCCCOCCOCCOCCCNc2cccc3c2C(=O)N(C2CCC(=O)NC2=O)C3=O)nc2[nH]c3cc(-c4c(C)noc4C)c(OC)cc3c12 (configuration not stated)
IC50 [13]: < 10 nM
